Assay results: patent US9956319B2, “Compositions useful as antibiofilm or antimicrobial agents and methods using same” (BAYLOR COLLEGE OF MEDICINE, priority 2012, dated 2018)

How the values were obtained:
MRSA = experiment: Zones of inhibition of impregnated catheter segments, modified Kirby-Bauer method; assay type: cell-based, Staphylococcus aureus
Experimental: To evaluate the antimicrobial activity of central venous catheters treated with α-lipoic acid or its combination with gentamicin, segments of 7 French triple lumen polyurethane central venous catheters were impregnated with α-lipoic acid, gentamicin, or the combination of lipoic acid and gentamicin using the same patented method described in Example 1 with 50 mg/ml of each agent (for the final solution volume). After the impregnation process and drying, zones of inhibition were performed on one-centimeter segments according to a modified Kirby-Bauer method against MSSE, MRSE, MRSA, K. pneumoniae, E. coli, P. mirabilis, Pseudomonas aeruginosa, and Candida albicans. Each segment was half embedded in the center of a Muller-Hinton agar plate that had been previously inoculated with an individual organism. Prior to placing the catheter segments in agar, each organism was grown for 18 hours in TSB to a concentration of 0.5 McFarland (10^8 cfu/ml). A cotton swab was placed in the suspension and streaked across the surface of the Muller-Hinton agar plate to cover the entire plate. All plates were placed in a 37° C. incubator for 24 hours. Zones were measured in mm after the incubation period (Table 2).
To evaluate the antimicrobial activity of central venous catheters treated with α-lipoic acid or its combination with doxycycline, segments of 7 French triple lumen polyurethane central venous catheters were impregnated with doxycycline or the combinations of α-lipoic acid and doxycycline using the same patented method described in Example 1 (U.S. Pat. No. 6,589,591) with 50 mg/ml of each agent (for the final solution volume). After the impregnation process and drying, zones of inhibition were performed on one-centimeter segments according to a modified Kirby-Bauer method against MSSE, MRSE, MRSA, K. pneumoniae, E. coli, P. aeruginosa, P. mirabilis, and C. albicans as described in Example 2. Zones of inhibition were measured in mm after the incubation period (Table 3).
(§1) To evaluate the antimicrobial activity of central venous catheters treated with lipoamide or its combination with levofloxacin, segments of 7 French triple lumen polyurethane central venous catheters were impregnated with levofloxacin or the combinations of lipoamide and levofloxacin using the same patented method described in Example 1 (U.S. Pat. No. 6,589,591) with 100 mg/ml (final solution volume) of each agent. After the impregnation process and drying, zones of inhibition were performed on one-centimeter segments according to a modified Kirby-Bauer method against MSSE, MRSE, MRSA, vancomycin-resistant Enterococcus (VRE), K. pneumoniae, E. coli, P. aeruginosa, P. mirabilis, and C. albicans as described in Example 2. Zones of inhibition were measured in mm after the incubation period (Table 4).
as §1, with “doxycycline,” for “levofloxacin,”, “doxycycline” for “levofloxacin”, “5).” for “4).”
To evaluate the antimicrobial activity of central venous catheters treated with dihydrolipoic acid, segments of 7 French triple lumen polyurethane central venous catheters were impregnated with dihydrolipoic acid using the same patented method described in Example 1 (U.S. Pat. No. 6,589,591) with 25 mg/ml (final solution volume) of the agent. […]

common pathogens [1] = experiment: Antimicrobial activity of impregnated catheters, overall conclusion from Tables 1-8; assay type: cell-based; settings: conclusion in words from Tables 1-8
common pathogens [2] = experiment: Anticolonization activity of impregnated central venous catheters, overall result in words; assay type: cell-based; settings: result in words summarising the culture results
Experimental: Catheter segments were then placed in the impregnating solution at 55° C. with agitation for 1 hour in the dark. Catheter segments were then removed from the solution and dried under a fume hood overnight in the dark. Catheter segments were rinsed with deionized water the next day and let dry for another 18 hours in the dark. After the impregnation process and drying, one-centimeter segments of impregnated catheters were individually placed in 1 ml of 10^5 cfu/ml suspensions of methicillin-sensitive Staphylococcus epidermidis (MSSE), methicillin-resistant Staphylococcus epidermidis (MRSE), methicillin-resistant Staphylococcus aureus (MRSA), Klebsiella pneumoniae, Escherichia coli, or Proteus mirabilis in trypticase soy broth (TSB) at 37° C. for 24 hours. One-centimeter segments of non-impregnated catheters were also incubated individually in each bacterial suspension at 37° C. for 24 hours as controls. Catheter segments were removed from each bacterial suspension after this period, shaken to remove excess broth containing free-floating bacteria from their surfaces, placed in 1 ml of normal saline, sonicated for 5 minutes, and vortexed for 30 seconds.
Aliquots of each suspension and subsequent dilutions were cultured quantitatively.
To evaluate the anticolonization/antimicrobial activity of central venous catheters treated with lipoamide, segments of 7 French triple lumen polyurethane central venous catheters were impregnated with lipoamide using the same patented method described in Example 1 (U.S. Pat. No. 6,589,591) with 100 mg/ml (final solution volume) of the agent. After the impregnation process and drying, Catheter segments were then placed in the impregnating solution at 55° C. with agitation for 1 hour in the dark. Catheter segments were then removed from the solution and dried under a fume hood overnight in the dark. Catheter segments were rinsed with deionized water the next day and let dry for another 18 hours in the dark. […]

| SMILES | Zones of inhibition (MRSA; catheter impregnated with 25 mg/ml of the agent) [mm] | intrinsic antimicrobial activity (common pathogens [1]) | bacterial cells adhered to treated catheter segments compared to control uncoated catheter segments (common pathogens [2]) | zone of inhibition at 100000 µg/mL (MRSA; Staphylococcus aureus, catheter impregnated with 100 mg/ml of each agent) [mm] | zone of inhibition at 50000 µg/mL (MRSA; Staphylococcus aureus, catheter impregnated with 50 mg/ml of each agent, 37° C., 24 hours) [mm] |
| --- | --- | --- | --- | --- | --- |
| O=C(O)CCCCC(S)CCS (stereo not drawn) [Dihydrolipoic acid, 6,8-dimercaptooctanoic acid] | 24 | unexpected intrinsic antimicrobial activities | substantially fewer bacterial cells adhered to them | – | – |
| NC(=O)CCCCC1CCSS1 (stereo not drawn) [Lipoamide, lipoamide] | – | unexpected intrinsic antimicrobial activities | substantially fewer or no bacterial cells adhered to them | 10 | – |
| O=C(O)CCCCC1CCSS1 (stereo not drawn) [Lipoic acid, 1,2-dithiolane-3-pentanoic acid] | – | unexpected intrinsic antimicrobial activities | substantially fewer or no bacterial cells adhered to them | – | 13 |
